# Source: patent publication US9505750B2, “5-aminocyclylmethyl-oxazolidin-2-one derivatives” (priority 2007, dated 2016)
# System: M. catarrhalis A894
# Assay: MIC determination by microdilution in cation-adjusted Mueller-Hinton Broth (NCCLS)
# Format: cell-based
# Details: Moraxella catarrhalis, pH 7.2-7.3
# Description: These assays have been performed following the description given in “Methods for dilution Antimicrobial Susceptibility Tests for Bacteria that Grow Aerobically, 4th ed.; Approved standard: NCCLS Document M7-A4; National Committee for Clinical Laboratory Standards: Villanova, Pa., USA, 1997”. Minimal inhibitory concentrations (MICs; mg/l) were determined in cation-adjusted Mueller-Hinton Broth (BBL) by a microdilution method following NCCLS guidelines (National Committee for Clinical Laboratory Standards. Methods for Dilution Antimicrobial Susceptibility). The pH of the test medium was 7.2-7.3. All Example compounds were tested against several Gram-positive and Gram-negative bacteria.
row,SMILES,MIC [µg/mL]
1,"COc1ccc2nccc(NC3CCN(C[C@@H]4CN(c5ccc6c(c5)NC(=O)CS6)C(=O)O4)CC3)c2c1 [Example 41, 6-{(R)-5-[4-(6-methoxy-quinolin-4-ylamino)-piperidin-1-ylmethyl]-2-oxo-oxazolidin-3-yl}-4H-benzo[1,4]thiazin-3-one]",0.5
2,"O=C1COc2ccc(N3C[C@@H](CN4CC(Nc5ccnc6ccc(F)cc56)C4)OC3=O)cc2N1 [Example 43, 6-{(R)-5-[3-(6-fluoro-quinolin-4-ylamino)-azetidin-1-ylmethyl]-2-oxo-oxazolidin-3-yl}-4H-benzo[1,4]oxazin-3-one]",0.25
3,"COc1ccc2nccc(NCC3CN(C[C@@H]4CN(c5ccc6c(c5)NC(=O)CS6)C(=O)O4)C3)c2n1 [Example 14, 6-((R)-5-{3-[(6-methoxy-[1,5]naphthyridin-4-ylamino)-methyl]-azetidin-1-ylmethyl}-2-oxo-oxazolidin-3-yl)-4H-benzo[1,4]thiazin-3-one]",≤ 0.031
4,"COc1ccc2ncnc(O[C@@H]3CN(C[C@@H]4CN(c5ccc6c(c5)NC(=O)CS6)C(=O)O4)C[C@H]3NC(C)=O)c2c1 (relative stereo) [Example 32, N-{(3R*,4R*)-4-(6-methoxy-quinazolin-4-yloxy)-1-[(R)-2-oxo-3-(3-oxo-3,4-dihydro-2H-benzo[1,4]thiazin-6-yl)-oxazolidin-5-ylmethyl]-pyrrolidin-3-yl}-acetamide]",0.25
5,"COc1ccc2nccc(NC(=O)C3CCN(C[C@@H]4CN(c5ccc6c(c5)NC(=O)CS6)C(=O)O4)C3)c2n1 (mixture of isomers) [Example 8, (RS)-1-[(R)-2-oxo-3-(3-oxo-3,4-dihydro-2H-benzo[1,4]thiazin-6-yl)-oxazolidin-5-ylmethyl]-pyrrolidine-3-carboxylic acid (6-methoxy-[1,5]naphthyridin-4-yl)-amide]",≤ 0.031
6,"COc1ccc2ncc(F)c(NC3CN(C[C@@H]4CN(c5ccc6c(c5)NC(=O)CO6)C(=O)O4)C3)c2n1 [Example 23, 6-{(R)-5-[3-(3-fluoro-6-methoxy-[1,5]naphthyridin-4-ylamino)-azetidin-1-ylmethyl]-2-oxo-oxazolidin-3-yl}-4H-benzo[1,4]oxazin-3-one]",≤ 0.031
7,"COc1ccc2ncnc(OC3CCN(C[C@@H]4CN(c5ccc6c(c5)OCCO6)C(=O)O4)C3)c2c1 (mixture of isomers) [Example 4, (R)-3-(2,3-dihydro-benzo[1,4]dioxin-6-yl)-5-[(RS)-3-(6-methoxy-quinazolin-4-yloxy)-pyrrolidin-1-ylmethyl]-oxazolidin-2-one]",≤ 0.031
8,"COc1ccc2ncc(F)c(CNC3CN(C[C@@H]4CN(c5ccc6c(c5)NC(=O)CO6)C(=O)O4)C3)c2c1 [Example 28, 6-((R)-5-{3-[(3-fluoro-6-methoxy-quinolin-4-ylmethyl)-amino]-azetidin-1-ylmethyl}-2-oxo-oxazolidin-3-yl)-4H-benzo[1,4]oxazin-3-one]",≤ 0.031
9,"COc1ccc2nccc(CNC3CN(C[C@@H]4CN(c5ccc6c(c5)NC(=O)CO6)C(=O)O4)C3)c2c1 [Example 29, 6-((R)-5-{3-[(6-methoxy-quinolin-4-ylmethyl)-amino]-azetidin-1-ylmethyl}-2-oxo-oxazolidin-3-yl)-4H-benzo[1,4]oxazin-3-one]",0.063
10,"O=C1CSc2ccc(N3C[C@@H](CN4CC(Nc5ccnc6ccc(F)cc56)C4)OC3=O)cc2N1 [Example 39, 6-{(R)-5-[3-(6-fluoro-quinolin-4-ylamino)-azetidin-1-ylmethyl]-2-oxo-oxazolidin-3-yl}-4H-benzo[1,4]thiazin-3-one]",0.063
11,"COc1ccc2nccc(CNC3CN(C[C@@H]4CN(c5ccc6c(c5)NC(=O)CO6)C(=O)O4)C3)c2n1 [Example 27, 6-((R)-5-{3-[(6-methoxy-[1,5]naphthyridin-4-ylmethyl)-amino]-azetidin-1-ylmethyl}-2-oxo-oxazolidin-3-yl)-4H-benzo[1,4]oxazin-3-one]",≤ 0.031
